The target of data set [1] is T1, 5-Lipoxygenase (Rattus norvegicus, UniProt P12527).
T1 construct: from 20 μM exogenous substrate in 105.000 g supernatants of rat PMNL (System B); from tissue; host or cells: 105,000 g supernatant of sonicated peritoneal PMNL of Wistar rats
T1 sequence (P12527 1-673): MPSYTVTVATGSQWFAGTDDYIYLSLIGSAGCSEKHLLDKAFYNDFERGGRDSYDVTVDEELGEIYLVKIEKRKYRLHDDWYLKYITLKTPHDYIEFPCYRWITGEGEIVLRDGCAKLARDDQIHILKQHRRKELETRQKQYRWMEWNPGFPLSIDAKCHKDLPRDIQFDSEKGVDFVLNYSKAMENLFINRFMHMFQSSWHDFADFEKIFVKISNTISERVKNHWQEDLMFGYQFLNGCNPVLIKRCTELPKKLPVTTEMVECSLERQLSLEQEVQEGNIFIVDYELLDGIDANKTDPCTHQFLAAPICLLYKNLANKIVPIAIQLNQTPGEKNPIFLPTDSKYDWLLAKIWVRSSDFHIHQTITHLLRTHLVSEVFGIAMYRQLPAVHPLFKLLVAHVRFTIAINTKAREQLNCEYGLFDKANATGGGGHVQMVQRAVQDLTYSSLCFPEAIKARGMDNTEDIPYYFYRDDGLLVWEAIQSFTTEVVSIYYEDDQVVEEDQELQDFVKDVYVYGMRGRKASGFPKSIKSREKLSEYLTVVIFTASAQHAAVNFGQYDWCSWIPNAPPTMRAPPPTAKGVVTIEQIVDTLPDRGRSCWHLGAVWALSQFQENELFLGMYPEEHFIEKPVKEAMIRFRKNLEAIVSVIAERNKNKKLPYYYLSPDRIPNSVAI
As to the kind of experiment: 5-LOX product formation from endogenous arachidonic acid in ionophore-stimulated intact rat PMNL (System A). Format: cell-based. Conditions: ionophore A23187 and Ca2+, 37° C. 5 min, means±standard deviation, n=6. How it is done: (§1) Glycogen-elicited rat peritoneal PMNL were collected 4 hours after the injection of a glycogen solution (5%) in Dulbecco's phosphate-buffered saline (PBS) into the peritoneum of 300-350 g Wistar rats. The washed cells (>90% PMNL) were lysed at 2×10^7 cells mL^−1 by sonication (3×5 s, digital Sonifier) in PBS containing 1 mm EDTA, and were subjected to sequential centrifugation at 10,000 and 105,000 g for 10 and 60 min (4° C.), respectively. Freshly obtained PMNL suspensions and aliquots of the 105,000 g supernatants were assayed for 5-lipoxygenase activity.
(§2) For 5-lipoxygenase product formation from endogenous arachidonic acid, glycogen-elicited rat peritoneal PMNL (1×10^7 cells) were stimulated at 37° C. for 5 min by ionophore A23187 and Ca^2+. The 5-lipoxygenase activity in the cell-free system was tested in aliquots (corresponding to 1×10^7 cells) of the 105,000 g supernatant fraction of rat PMNL in the presence of 1 mm ATP, 1.8 mM CaCl2, 1 mM EDTA, and 20 μM arachidonic acid at 37° C. for 5 min. In both intact cells and cell-free tests, the incubations were terminated by cooling to 4° C. and acidification to pH of 3 with formic acid. For inhibition studies, the test compounds dissolved in dimethyl sulphoxide (DMSO) were added 5 min prior to initiation.
(§3) Inhibitors and non-inhibitory pentacyclic triterpenes were added simultaneously. All incubations, including controls, were carried out in the presence of 0.5% DMSO. The 5-lipoxygenase products were quantified after the addition of 170 ng PGB2 as an internal standard by extraction, with RP-HPLC separation and ultraviolet detection of products. With intact rat PMNL and the 105,000 g supernatant fraction the main products from arachidonic acid of 5 min incubations were leukotriene B4 (LTB4), 6-trans-LTB4, 12-epi-6-trans-LTB4 and 5-HETE along with negligible amounts of 5(S), 12(S)-diHETE.
(§4) FIG. 2 is a graph showing the effects of the pentacyclic triterpenoidal derivatives on 5-Lox product formation for System A. FIG. 3 is a graph showing the effects of the pentacyclic triterpenoidal derivatives on 5-Lox product formation for System B. Inhibition concentrations (IC50) of the biological effect of each of the compounds were determined after logit-log transformation of the data for each experiment. Data of independent observations (n=6) are shown as means±standard deviation.

Data set [2] concerns the target T1, 5-Lipoxygenase. Nature of the data set: 5-LOX product formation from 20 μM exogenous substrate in 105,000 g supernatants of rat PMNL, cell-free (System B). Format: biochemical. Conditions: cell-free 105,000 g supernatant of rat PMNL, 20 μM arachidonic acid, 1 mM ATP, 1.8 mM CaCl2, 37° C. 5 min; means±standard deviation, n=6. How it is done: as §1, §2, §3, §4

Experimental findings from patent publication US9975917B1, “Pentacyclic triterpenoidal derivatives” (KING SAUD UNIVERSITY, priority 2017, dated 2018) are described below.

As for `CC1CCC2(C)CCC3(C)C(=CC(=O)C4C5(C)C=CC(=O)C(C)(C(=O)c6ccccc6)C5CCC43C)C2C1C` (centres unmarked) [Compound 6, 3,11-dioxo-24(Phenyl)-urs-1,12-diene-24-one], the IC50 against 5-Lipoxygenase [1] was determined as 0.021 µM; against 5-Lipoxygenase [2], 0.044 µM.

For the molecule `CC(=O)O[C@@H]1CC[C@@]2(C)[C@@H](CC[C@]3(C)[C@@H]2C(=O)C=C2[C@@H]4[C@@H](C)[C@H](C)CC[C@]4(C)CC[C@]23C)[C@@]1(C)C(=O)O` [AKBA, Acetyl-11-keto-β-boswellic acid, reference compound], the IC50 is 1.5 µM at 5-Lipoxygenase [1] and 7 µM against 5-Lipoxygenase [2].

The molecule `CC1CCC2(C)CCC3(C)C(=CC(=O)C4C5(C)CCC(=O)C(C)(C(=O)c6ccccc6)C5CCC43C)C2C1C` (centres unmarked) [Compound 4, 3,11-dioxo-24(phenyl)-urs-12-en-24-one] showed a melting point of 300 °C. This molecule also had an IC50 on 5-Lipoxygenase [1] of 0.078 µM. This molecule displayed an IC50 against 5-Lipoxygenase [2] of 0.098 µM.

As to `CC1CCC2(C)CCC3(C)C(=CC(=O)C4C5(C)CCC(=O)C(C)(c6ccccc6)C5CCC43C)C2C1C` (centres unmarked) [Compound 5, 24-norurs-12-en-24(phenyl)-3,11-dione], the melting point is 256 °C. Also, the IC50 at 5-Lipoxygenase [1] came to 0.17 µM. On 5-Lipoxygenase [2], this molecule had a concentration for half-maximal inhibition (IC50) of 0.28 µM.

As to `CC1CCC2(C)CCC3(C)C(=CC(=O)C4C5(C)C=CC(=O)C(C)(c6ccccc6)C5CCC43C)C2C1C` (centres unmarked) [Compound 7, 24-nor-urs-1,12-diene-24(phenyl)-3,11-dione], the melting point stood at 267 °C. Besides, it took 0.12 µM to reach half-maximal inhibition against 5-Lipoxygenase [1] (IC50). In addition, the IC50 on 5-Lipoxygenase [2] turned out to be 0.24 µM.

With `CC1CCC2(C)CCC3(C)C(=CC(=O)C4C5(C)CCC(=O)C(C)(C(=O)Cl)C5CCC43C)C2C1C` (stereo not drawn) [Compound 3, 3,11-dioxo-urs-12-en-24β-acid chloride], the IC50 at 5-Lipoxygenase [1] worked out at 0.19 µM; at 5-Lipoxygenase [2], 0.34 µM.

As to `CC1CCC2(C)CCC3(C)C(=CC(=O)C4C5(C)CCC(O)C(C)(C(=O)O)C5CCC43C)C2C1C` (stereo not drawn) [11-keto-β-boswellic acid/1, 11-keto-β-boswellic acid, reference compound], the IC50 stood at 2.8 µM against 5-Lipoxygenase [1] and 14.6 µM against 5-Lipoxygenase [2].
